Experimental data as given in paper PMC7024211, “Antifouling Napyradiomycins from Marine-Derived Actinomycetes Streptomyces aculeolatus” (Marine Drugs, 2020).
≈ marks a conversion by molar mass, not a printed value.

Assays:
[1] = system: C. marina; experiment: Biofilm inhibition assay (crystal violet); assay type: cell-based, Cobetia marina; conditions: 31.25 µg/mL
Description: (§1) In a 96-well plate, biofilm grown cultures of M. hydrocarbonoclasticus and C. marina were incubated with napyradiomycins (1–12) at a concentration of 31.25 µg/mL. After discarding the media, biofilm inhibition was determined from OD600 measurements of crystal violet stained cells resuspended from the plate bottom with acetic acid.
(§2) Five marine bacterial species were used as models to assess antimicrofouling activity. The biofilm-forming marine bacteria Marinobacter hydrocarbonoclasticus DSM 8798 (ATCC 49840), Cobetia marina DSM 4741, Phaeobacter inhibens DSM 17,395, and Pseusooceanicola batsensis DSM 15,984 were obtained from DSMZ (Leibniz Institute DSMZ—German collection of Microorganisms and Cell Cultures) and Micrococcus luteus. Cultures were routinely grown in liquid marine broth (Carl Roth GmbH, Karlsruhe, Germany) with agitation (180 rpm) or on agar-supplemented marine broth, at 28 °C (M. hydrocarbonoclasticus and C. marina) or 30 °C (P. inhibens and P. batsensis). M. luteus was maintained in Brain Heart Infusion broth (BHI, Becton Dickinson, GmbH, Heidelberg, Germany) with agitation (180 rpm) or on agar-supplemented BHI, at 37 °C.
(§3) The antibiofilm activity of napyradiomycins (1–12) against the five marine bacterial species was assessed in 96-well polystyrene flat bottom microplates (Nunclon Delta Surface, Thermo Scientific, Roskilde, Denmark) as previously reported. For initial screening, bacterial overnight cultures were diluted to an optical density (OD600nm) value of 0.2 and incubated statically at 28 °C (M. hydrocarbonoclasticus, C. marina), 30 °C (P. inhibens, P. batsensis) or 37 °C (M. luteus) in the 96-well microplate in the presence or absence of 31.25 µg/mL of napyradiomycins, solubilized in DMSO. After 24 h (M. hydrocarbonoclasticus, C. marina) or 48 h (P. batsensis, P. inhibens, M. luteus) incubation, the OD600nm was determined. The planktonic cells and media were discarded, and the wells were washed twice with deionized water. The biofilm was fixed for 1 h at 60 °C and stained with crystal violet 0.06% for 10 min. The dye was discarded, and the wells were again washed twice with deionized water. The stained biofilm was solubilized with 30% acetic acid and the OD600nm was determined. […] The percentage of biofilm inhibition was calculated as the amount of biofilm relative to that of the bacterial species without added compounds (with the same amount of DMSO added). CuSO4 (5 μM), a potent antifouling agent used in antifouling paints, was used as reference.
(§4) All assays were performed in triplicate, and results are representative of the average and standard error of the mean (SEM). Statistical analysis was performed in GraphPad Prism 8.0.2, using one-way ANOVA followed by a Dunnett’s multiple comparisons test against the control (species grown with the same amount of DMSO added).

[2] = system: M. luteus; experiment: Biofilm inhibition assay (crystal violet); assay type: cell-based, Micrococcus luteus
Description: as §1, §2, §3, §4

[3] = system: M. luteus; experiment: Bacterial growth inhibition assay (OD600nm); assay type: cell-based, Micrococcus luteus
From the text: as §2
(§5) The antibacterial activity of the napyradiomycins (1–12) was assessed in 96-well polystyrene flat bottom microplates (Nunclon Delta Surface, Thermo Scientific, Roskilde, Denmark) following previously reported procedures. […] After 24 h (M. hydrocarbonoclasticus, C. marina) or 48 h (P. batsensis, P. inhibens, M. luteus) incubation, the OD600nm was determined (Molecular Devices, Spectra Max 190). […] The percentage of growth inhibition was calculated as the amount of growth relative to that of the bacterial species without added compounds (with the same amount of DMSO added). CuSO4 (5 μM), a potent antifouling agent used in antifouling paints, was used as reference.
as §4, with “8.0.2 (San Diego, CA, USA),” for “8.0.2,”

[4] = system: M. hydrocarbonoclasticus; experiment: Biofilm inhibition assay (crystal violet); assay type: cell-based, Marinobacter hydrocarbonoclasticus; conditions: Marinobacter nauticus; for inhibition at 31.25 µg/mL: read-out: % Biofilm Inhibition ± SEM M. hydrocarbonoclasticus
Description: as §1, §2, §3, §4

[5] = system: P. batsensis; experiment: Biofilm inhibition assay (crystal violet); assay type: cell-based, Pseudooceanicola batsensis; conditions: Pseudooceanicola batsensis; 31.25 µg/mL; read-out: % Biofilm Inhibition ± SEM P. batsensis
Description: as §1, §2, §3, §4

[6] = system: P. inhibens; experiment: Biofilm inhibition assay (crystal violet); assay type: cell-based, Phaeobacter inhibens; conditions: 31.25 µg/mL
Description: as §1, §2, §3
All assays were performed in triplicate, and results are representative of the average and standard error of the mean (SEM). […]

[7] = Mussel plantigrade larvae settlement, 15 h acute exposure assay; assay type: in vivo; conditions: Mytilus galloprovincialis (mussel, plantigrade larvae), in vivo, no mortality at highest tested concentration 12 µg/mL
Description: (§6) Mussel (M. galloprovincialis) adhesive larvae (plantigrades) were used to assess in vivo the antifouling activity of napyradiomycins (1–12) towards macrofouling. Juvenile mussel aggregates were collected at the intertidal rocky shore during low spring tides, at Memória beach, Matosinhos, Portugal (41°13′59″ N; 8°43′28″ W). At the laboratory, immediately before the bioassays, mussel plantigrade larvae were screened and isolated from the juvenile aggregates using a binocular microscope (Olympus SZX2-ILLT, Hamburg, Germany) and washed with filtered seawater to remove organic debris. Only competent plantigrade larvae (those showing foot exploratory behavior) were selected and used in the exposure bioassays following previously validated procedures. Plantigrades were exposed in 24-well polystyrene plates for 15 h in the darkness at 18 °C. DMSO was used as solvent for crude extracts, fractions and pure compounds stock and working solutions. Working solutions were prepared by successive dilutions of stock solutions in DMSO and then diluted in filtered seawater to obtain the test solutions. DMSO concentration in test solutions was always 0.1%. Four well replicates were used per condition with five larvae per well. Two negative controls, one with ultra-pure water and the other with DMSO 0.1% were included in all bioassays, as well as a positive control with 5 μM CuSO4 (a potent antifouling agent). Anti-settlement bioactivity was determined by the presence/absence of fixed byssal threads produced by each individual larvae for all the conditions tested. […] Chi-square Pearsons goodness-of-fit test was applied to data in order to determine EC50. Significance was considered at p < 0.01 for all analyses, and 95% lower and upper confidence limits [95% LCL; UCL] were presented. Therapeutic ratio (LC50/EC50) was used to evaluate the effectiveness vs. toxicity of compounds [19, 21].

[8] = system: M. galloprovincialis plantigrade larvae; experiment: as above; assay type: in vivo; conditions: 95% LCL, UCL in brackets; for EC50: Mytilus galloprovincialis, 15 h, read-out: EC50 [Conf. limits] larval settlement
Description: as §6

[9] = system: M. hydrocarbonoclasticus; experiment: Bacterial growth inhibition assay (OD600nm); assay type: cell-based, Marinobacter hydrocarbonoclasticus; conditions: 31.25 µg/mL
Description: As a first screening approach, liquid cultures of M. hydrocarbonoclasticus, and C. marina in a 96-well format were analyzed for bacterial growth inhibition by percent decrease in OD600 after incubation with napyradiomycins (1–12) at 31.25 µg/mL.
as §2
The antibacterial activity of the napyradiomycins (1–12) was assessed in 96-well polystyrene flat bottom microplates (Nunclon Delta Surface, Thermo Scientific, Roskilde, Denmark) following previously reported procedures. For initial screening, bacterial overnight cultures were diluted to an optical density (OD600nm) of 0.2 and incubated statically at 28 °C (M. hydrocarbonoclasticus, C. marina), 30 °C (P. inhibens, P. batsensis) or 37 °C (M. luteus) in a 96-well microplate in the presence or absence of 31.25 µg/mL of the napyradiomycins, solubilized in DMSO. After 24 h (M. hydrocarbonoclasticus, C. marina) or 48 h (P. batsensis, P. inhibens, M. luteus) incubation, the OD600nm was determined (Molecular Devices, Spectra Max 190). […] The percentage of growth inhibition was calculated as the amount of growth relative to that of the bacterial species without added compounds (with the same amount of DMSO added). CuSO4 (5 μM), a potent antifouling agent used in antifouling paints, was used as reference.
as §4, with “8.0.2 (San Diego, CA, USA),” for “8.0.2,”

[10] = system: C. marina; experiment: Bacterial growth inhibition assay (OD600nm); assay type: cell-based, Cobetia marina; conditions: 31.25 µg/mL
From the text: as §2, §5
as §4, with “8.0.2 (San Diego, CA, USA),” for “8.0.2,”

C=C(C)C(O)CC/C(C)=C/C[C@@]12OC(C)(C)[C@H](Cl)C[C@]1(Cl)C(=O)c1c(O)cc(O)cc1C2=O (stereo partly drawn) [Napyradiomycin 4, napyradiomycin A2]
% Biofilm Inhibition ± SEM C. marina [1]: N.I. | % inhibition of biofilm formation M. luteus ([2]; 0.98 µg/mL): 93.8 ± 4.1% | inhibition at 0.98 µg/mL ([2]; Micrococcus luteus, 0.98 µg/mL, read-out: % inhibition of biofilm formation M. luteus): > 90% | inhibition at 1.95 µg/mL ([2]; Micrococcus luteus, 1.95 µg/mL, read-out: % inhibition of biofilm formation M. luteus): 91.7 ± 0.9% | inhibition at 3.91 µg/mL ([2]; Micrococcus luteus, 3.91 µg/mL, read-out: % inhibition of biofilm formation M. luteus): 100 ± 0.4% | inhibition at 7.81 µg/mL ([2]; Micrococcus luteus, 7.81 µg/mL, read-out: % inhibition of biofilm formation M. luteus): 86.7 ± 3% | inhibition at 15.6 µg/mL ([2]; Micrococcus luteus, 15.6 µg/mL, read-out: % inhibition of biofilm formation M. luteus): 88.8 ± 4.2% | inhibition at 31.25 µg/mL ([2]; Micrococcus luteus, 31.25 µg/mL, read-out: % Biofilm Inhibition ± SEM M. luteus): 97 ± 1.2% | inhibition at 0.98 µg/mL ([3]; Micrococcus luteus, 0.98 µg/mL): 38.7 ± 1.9% | inhibition at 1.95 µg/mL ([3]; Micrococcus luteus, 1.95 µg/mL): 51.7 ± 4.5% | inhibition at 3.91 µg/mL ([3]; Micrococcus luteus, 3.91 µg/mL): 61.2 ± 3.7% | inhibition at 7.81 µg/mL ([3]; Micrococcus luteus, 7.81 µg/mL): 53.3 ± 5.7% | inhibition at 15.6 µg/mL ([3]; Micrococcus luteus, 15.60 µg/mL): 60.1 ± 8.5% | inhibition at 31.25 µg/mL ([3]; Micrococcus luteus, 31.25 µg/mL): 72.5 ± 7.7% | % growth inhibition M. luteus ([3]; all tested concentrations): approximately 50% | inhibition at 0.98 µg/mL ([4]; 0.98 µg/mL, read-out: % inhibition of biofilm formation M. hydro.): 56.1 ± 5.6% | inhibition at 1.95 µg/mL ([4]; 1.95 µg/mL, read-out: % inhibition of biofilm formation M. hydro.): 78.1 ± 3% | inhibition at 3.91 µg/mL ([4]; 3.91 µg/mL, read-out: % inhibition of biofilm formation M. hydro.): 84.5 ± 2% | inhibition at 7.81 µg/mL ([4]; 7.81 µg/mL, read-out: % inhibition of biofilm formation M. hydro.): 67 ± 5.5% | inhibition at 15.6 µg/mL ([4]; 15.6 µg/mL, read-out: % inhibition of biofilm formation M. hydro.): 82.3 ± 1.5% | inhibition at 31.25 µg/mL [4]: 56.9 ± 5.7% | inhibition at 31.25 µg/mL [5]: 13.4 ± 0.8% | % Biofilm Inhibition ± SEM P. inhibens [6]: N.I. | LC50 at 15 h [7]: > 12 µg/mL | EC50 [8]: 6.34 µg/mL (≈ 12.7 µM)

Cc1c(O)cc2c(c1O)C(=O)C1(Cl)CC(Cl)C(C)(C)OC1(CC1C(C)(O)CCC(Cl)C1(C)C)C2=O (stereo not drawn) [Napyradiomycin 10, napyradiomycin A80915C]
% Biofilm Inhibition ± SEM C. marina [1]: N.I. | % growth inhibition M. hydrocarbonoclasticus [9]: did not inhibit growth | inhibition at 31.25 µg/mL [4]: 25.1 ± 10.2% | LC50 at 15 h [7]: > 12 µg/mL | EC50 [Conf. limits] larval settlement [8]: 0.102 [0.072; 0.140] µg/mL | EC50 [8]: 0.1 µg/mL (≈ 0.183 µM) | % growth inhibition C. marina [10]: did not inhibit growth

C=C1CCC(Cl)C(C)(C)C1C[C@@]12OC(C)(C)[C@H](Cl)C=C1C(=O)c1c(cc(O)c(C)c1O)C2=O (stereo partly drawn) [Napyradiomycin 12, 4-dehydro-4a-dechloro-napyradiomycin A80915A]
% Biofilm Inhibition ± SEM C. marina [1]: N.I. | % growth inhibition M. hydrocarbonoclasticus [9]: did not inhibit growth | inhibition at 31.25 µg/mL [4]: 33.7 ± 5.1% | LC50 at 15 h [7]: > 12 µg/mL | EC50 [Conf. limits] larval settlement [8]: 0.947 [0.586; 1.473] µg/mL | EC50 [8]: 0.95 µg/mL (≈ 1.93 µM) | % growth inhibition C. marina [10]: did not inhibit growth
